From US20080171792A1, “Use of highly concentrated formulations of 4-phenylbutyrate for treatment of certain disorders” (priority 2006, published 2008)

How the values were obtained:
[1] = Solubility / achievable concentration of sodium 4-phenylbutyrate in water; assay type: physicochemical; conditions: supersaturated solution in aqueous medium
Experimental: This art-reported solubility is believed to pertain to the maximum solubility of the monomeric form of sodium 4-phenylbutyrate in water. As described in more detail below, a process has been identified of preparing a highly concentrated solution of sodium 4-phenylbutyrate, having a concentration 500 mg/mL in water by dissolving 5 g of sodium 4-phenylbutyrate in about 3.5 mL water to yield a solution volume of about 10 mL. The temperature can be room temperature (25° C.) or an elevated temperature, preferably in the range of up to about 80° C. The solution can be made at a higher temperature and then cooled to room temperature without precipitating resulting.

[2] = tested on: histone deacetylase (HDAC); conditions: cited from earlier work
[3] = high dosage of about 20 g a day; cited from earlier work
[4] = Storage of the concentrated aqueous solution at low temperature (freezing / precipitation); assay type: physicochemical
Experimental: Therefore, due to likely micelle formation of sodium 4-phenylbutyrate (which we term the self-associated polymeric form), the high concentration of about 500 mg/mL can be achieved in solution. […] This novel invention thus provides a dosage form better able to help the patients presently administered with a high volume dosage of sodium 4-phenylbutyrate. This invention is not intended to be limited by this discussion of micellar phases, or the presence or absence of other high concentration phases (such as sponge or L3, worm-like micelles, sheets and other laminar phases) that may be formed depending on the particular processing conditions and/or materials used. In the follow description the term “solution” is used without regard to whether a micellar phase is present. […] The mixture was cooled to 25° C. and 0.5 g of sodium benzoate was added and mixed well. […] Further cooling of this solution to about −4° C. caused precipitation.

- maximum drug concentration achieved in the formulation [1]: about 700 mg/mL
- freezing of the solution ([4]; 600 mg/mL solution at 0° C.): does not freeze
- temperature at which precipitation is observed on further cooling ([4]; about 500 mg/mL solution): −40 °C
- freezing or precipitation upon storage ([4]; about 500 mg/mL solution, 0° C. for two days): did not freeze or precipitate out
SMILES: O=C([O-])CCCc1ccccc1.[Na+] [sodium 4-phenylbutyrate]
- inhibition of histone deacetylase (HDAC) [2]: efficient inhibitor
- tolerability [3]: well tolerated
